The results in this text go back to PubChem BioAssay (NCI).

Values joined by “and” are separate entries in the source; they are usually repeats but may differ in a detail not shown here. Equal entries are not always repeated.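 Briefly, cells in 96-well plates were exposed to five compound concentrations for 48 h, and endpoints were estimated by linear interpolation. At the GI50, growth is halved. At the TGI there is no net growth.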

Test systems include A549 NSCLC; HCT-15 colon; HT29 colon; KM12 colon; NCI-H226 lung; RXF 393 renal; SNB-19 CNS; SNB-75 CNS; U251 CNS; UACC-62 melanoma.
Holding throughout (assay): inhibition of tumour cell growth, NCI panel, 48 h

Consider `Nc1ncnc2c1c(-c1ccc(Oc3ccccc3)cc1)nn2CC1SSCC1O` (stereo not given), for which the GI50 in the assay on A549 NSCLC was 3.8 µM; in the assay with HCT-15 colon, 3.03 µM; in the assay with HT29 colon, 1.27 µM; in the assay with KM12 colon, 0.324 µM; in the assay on NCI-H226 lung it was 3.7 µM; with RXF 393 renal, 2.74 µM. Besides, the GI50 was 5.51 µM with SNB-19 CNS, 5.79 µM in the assay on SNB-75 CNS, 4.31 µM with U251 CNS and 0.63 µM with UACC-62 melanoma. Further, the TGI with A549 NSCLC is 9.17 µM; in the assay on HCT-15 colon, 9.88 µM; with HT29 colon, 6.36 µM; with KM12 colon, 7.67 µM; in the assay on NCI-H226 lung, 9.91 µM; with RXF 393 renal, 9.62 µM. The TGI in the assay with SNB-19 CNS was 13 µM; with SNB-75 CNS, 14.9 µM; with U251 CNS it was 9.66 µM; in the assay on UACC-62 melanoma, 1.33 µM.
In the case of `Cn1cc(-c2ccc3ncc(-c4ccc(CC(=O)Nc5cc(C(C)(C)C)nn5C)cc4)cc3c2)cn1`, the GI50 with A549 NSCLC is 1.44 µM; in the assay with HCT-15 colon it was 0.793 µM; in the assay on HT29 colon, 3.99 µM; in the assay with KM12 colon, 0.151 µM; with NCI-H226 lung, 1.05 µM; in the assay on RXF 393 renal, 1.14 µM. Also, the GI50 was 3.35 µM in the assay on SNB-19 CNS, 0.37 µM in the assay with SNB-75 CNS, 2.11 µM in the assay on U251 CNS and 1.26 µM in the assay on UACC-62 melanoma. For the same compound, the TGI in the assay on A549 NSCLC was above 20 µM; in the assay with HCT-15 colon, above 20 µM; in the assay with HT29 colon, above 20 µM; in the assay on KM12 colon, 3 µM; in the assay on NCI-H226 lung, 13.3 µM; in the assay on RXF 393 renal it was above 20 µM. Further, the TGI is above 20 µM in the assay with SNB-19 CNS, above 20 µM with SNB-75 CNS, above 20 µM in the assay on U251 CNS and 6.65 µM in the assay on UACC-62 melanoma.
With `O=C([O-])c1ccc([I+]c2ccccc2)cc1`, the TGI in the assay with A549 NSCLC, in the assay on HCT-15 colon, in the assay on HT29 colon, in the assay with KM12 colon, in the assay on NCI-H226 lung and in the assay with RXF 393 renal was above 100 µM each time. In addition, the TGI in the assay on SNB-19 CNS, in the assay on SNB-75 CNS, with U251 CNS and in the assay on UACC-62 melanoma was above 100 µM each time.
As to `CCc1c(OC(C)=O)c2c(NC3OC(COC(C)=O)C(OC(C)=O)C(OC(C)=O)C3OC(C)=O)nc(SC)nc2oc1=O` (stereo not given), the TGI with A549 NSCLC, in the assay on HCT-15 colon, in the assay on HT29 colon, in the assay on KM12 colon, in the assay on NCI-H226 lung and with RXF 393 renal was above 100 µM in each case. The TGI in the assay with SNB-19 CNS, with SNB-75 CNS, in the assay on U251 CNS and in the assay on UACC-62 melanoma was above 100 µM in each case.
Take `O=C(Nc1ccc(-n2cc(-c3ccncc3)c(-c3ccc(Cl)c(O)c3)n2)cc1)c1cc(C(F)(F)F)cc(C(F)(F)F)c1`: the GI50 was 5.43 µM with A549 NSCLC; 3.65 µM with HCT-15 colon; 3.43 µM in the assay on HT29 colon; 4.01 µM in the assay on KM12 colon; 3.63 µM with NCI-H226 lung; 1.32 µM in the assay with RXF 393 renal. Moreover, the GI50 is 8.79 µM with SNB-19 CNS, 2.82 µM in the assay with SNB-75 CNS, 4.91 µM in the assay with U251 CNS and 14.4 µM in the assay on UACC-62 melanoma. Further, the TGI is 22 µM in the assay on A549 NSCLC; above 100 µM in the assay with HCT-15 colon; 28.9 µM in the assay with HT29 colon; 16.2 µM with KM12 colon; 18.8 µM with NCI-H226 lung; 3.1 µM in the assay on RXF 393 renal. Besides, the TGI in the assay with SNB-19 CNS was above 100 µM; with SNB-75 CNS it was 28.2 µM; with U251 CNS, 22 µM; in the assay with UACC-62 melanoma, above 100 µM.
On to `Cc1ccc(C(=O)Nc2ccc(Oc3cc4cnn(C)c4cc3-c3cn[nH]c3)c(F)c2)c(=O)n1-c1ccc(F)cc1`, for which the GI50 in the assay on A549 NSCLC was 7.6 µM; in the assay with HCT-15 colon it was 6.1 µM; with HT29 colon, 3.54 µM; in the assay with KM12 colon, 0.0304 µM; in the assay with NCI-H226 lung it was 2.16 µM; in the assay on RXF 393 renal, 2.23 µM. Also, the GI50 was above 100 µM with SNB-19 CNS, 5.61 µM with SNB-75 CNS, 32.9 µM with U251 CNS and 2.08 µM in the assay with UACC-62 melanoma. Further, the TGI with A549 NSCLC, in the assay on HCT-15 colon, with HT29 colon, in the assay with KM12 colon, in the assay on NCI-H226 lung and in the assay with RXF 393 renal was above 100 µM each time. Also, the TGI with SNB-19 CNS, with SNB-75 CNS, with U251 CNS and in the assay with UACC-62 melanoma was above 100 µM throughout.
For `O=[N+]([O-])c1cccnc1S(=O)(=O)c1ccccc1`, the TGI came to 40.4 µM in the assay on A549 NSCLC; 21.7 µM in the assay on HCT-15 colon; 14.3 µM in the assay with HT29 colon; 36.3 µM in the assay on KM12 colon; 34.7 µM with NCI-H226 lung; 3.77 µM with RXF 393 renal. Moreover, the TGI turned out to be 34.1 µM in the assay with SNB-19 CNS, 35.9 µM with SNB-75 CNS, 22.8 µM in the assay on U251 CNS and 23.9 µM in the assay with UACC-62 melanoma.
As to `CS(=O)(=O)OCCN1CCN(C(=O)c2ccc(Cl)c3c(Nc4ccc(S(=O)(=O)N=C(N)N)cc4)c4ccccc4nc23)CC1`, the TGI in the assay on A549 NSCLC, in the assay on HCT-15 colon, with HT29 colon, in the assay with KM12 colon, with NCI-H226 lung and with RXF 393 renal was above 100 µM each time. In addition, the TGI in the assay with SNB-19 CNS, in the assay with SNB-75 CNS, in the assay on U251 CNS and in the assay on UACC-62 melanoma was above 100 µM in each case.
Regarding `CC[n+]1c(-c2ccccc2)c2cc(N)ccc2c2ccc(N)cc21`, the GI50 in the assay with A549 NSCLC is 2.17 µM; in the assay on HCT-15 colon, 39.6 µM; in the assay on HT29 colon, 1.64 µM; with KM12 colon it was 1.02 µM; in the assay on NCI-H226 lung, 0.504 µM and 0.723 µM and 2.65 µM; with RXF 393 renal, 1.07 µM. For the same compound, the GI50 was 0.368 µM and 0.502 µM and 1.43 µM in the assay with SNB-19 CNS; 1.29 µM in the assay on SNB-75 CNS; 0.399 µM in the assay on U251 CNS; 0.578 µM in the assay on UACC-62 melanoma. Moreover, the TGI was 48.3 µM and 76.7 µM and > 95.1 µM in the assay on A549 NSCLC; above 100 µM in the assay with HCT-15 colon; 9.45 µM and 29 µM in the assay with HT29 colon; 4.68 µM and 15 µM and 21.9 µM in the assay on KM12 colon; 4.55 µM and 5.64 µM and 13.5 µM in the assay with NCI-H226 lung; 3.51 µM and 17.1 µM in the assay on RXF 393 renal. Further, the TGI was 3.16 µM and 1.14 µM in the assay on SNB-75 CNS; 10.2 µM and 20.7 µM with U251 CNS; 2.4 µM and 3.61 µM with UACC-62 melanoma.
As to `CC(C)(C)C1=NO[C@H]2[C@@H](NC(=O)c3ccccc3)CC[C@@H]12`, the TGI in the assay on A549 NSCLC, in the assay on HCT-15 colon, with HT29 colon, with KM12 colon, with NCI-H226 lung and in the assay on RXF 393 renal was above 100 µM in each case. The TGI in the assay on SNB-19 CNS, in the assay on SNB-75 CNS, in the assay on U251 CNS and in the assay with UACC-62 melanoma was above 100 µM in each case.
Turning to `O=C1C2C(C(=O)N1Cc1ccccc1)N(Cc1ccccc1)C(=O)N2Cc1ccccc1` (stereo not given), the TGI with A549 NSCLC, in the assay with HCT-15 colon, in the assay on HT29 colon, with KM12 colon, in the assay on NCI-H226 lung and in the assay on RXF 393 renal was above 100 µM each time. Also, the TGI with SNB-19 CNS, in the assay on SNB-75 CNS, in the assay on U251 CNS and in the assay on UACC-62 melanoma was above 100 µM throughout.
Consider `CNC(=O)OCc1nc(SSc2nc(COC(=O)NC)c(COC(=O)NC)n2C)n(C)c1COC(=O)NC`, for which the TGI with A549 NSCLC, in the assay on HCT-15 colon, in the assay with HT29 colon, in the assay on KM12 colon, in the assay on NCI-H226 lung and in the assay with RXF 393 renal was above 100 µM in each case. Besides, the TGI with SNB-19 CNS, in the assay with SNB-75 CNS, in the assay on U251 CNS and in the assay with UACC-62 melanoma was above 100 µM throughout.
Turning to `N=C(N)n1cc(/C=N/N=C(N)N)cn1`, the TGI in the assay with A549 NSCLC, in the assay with HCT-15 colon, in the assay on HT29 colon, in the assay with KM12 colon, in the assay on NCI-H226 lung and in the assay on RXF 393 renal was above 100 µM each time. The TGI in the assay with SNB-19 CNS, with SNB-75 CNS, in the assay with U251 CNS and in the assay on UACC-62 melanoma was above 100 µM throughout.
Consider `C/C(=N\NC(=S)N1CCC1)c1ccccn1`, for which the GI50 in the assay on A549 NSCLC is 0.0527 µM; in the assay with HCT-15 colon, 0.00336 µM; in the assay with HT29 colon it was 0.00471 µM; in the assay on KM12 colon, 0.0477 µM; in the assay with NCI-H226 lung, 0.0117 µM; in the assay on U251 CNS, 0.00725 µM. The TGI is 37.5 µM in the assay on A549 NSCLC; 45.4 µM in the assay with HCT-15 colon; 34.5 µM with HT29 colon; 46.7 µM in the assay with KM12 colon; 3.48 µM with NCI-H226 lung; 4.39 µM in the assay on RXF 393 renal. Besides, the TGI is above 100 µM in the assay on SNB-19 CNS, above 29.9 µM in the assay on SNB-75 CNS, above 82.6 µM in the assay with U251 CNS and 7.36 µM with UACC-62 melanoma.
With `O=C(O)c1ccccc1C(=O)c1ccco1`, the TGI with A549 NSCLC, in the assay with HCT-15 colon, in the assay with HT29 colon, with KM12 colon, in the assay on NCI-H226 lung and in the assay with RXF 393 renal was above 100 µM each time. The TGI in the assay on SNB-19 CNS, with SNB-75 CNS, in the assay on U251 CNS and in the assay with UACC-62 melanoma was above 100 µM in each case.
